Experimental data from patent publication US7799821B2, “Therapeutic compounds” (Allergan, Inc., priority 2004, dated 2010).

Experiments:
Type in all cases: cell-based
hTP = target: T1, hTP (Homo sapiens, UniProt P21731); assay: FLIPR calcium signal, hTP
T1 construct: expressed in transfected cells; host or cells: HEK-293(EBNA)
T1 sequence (P21731 1-343): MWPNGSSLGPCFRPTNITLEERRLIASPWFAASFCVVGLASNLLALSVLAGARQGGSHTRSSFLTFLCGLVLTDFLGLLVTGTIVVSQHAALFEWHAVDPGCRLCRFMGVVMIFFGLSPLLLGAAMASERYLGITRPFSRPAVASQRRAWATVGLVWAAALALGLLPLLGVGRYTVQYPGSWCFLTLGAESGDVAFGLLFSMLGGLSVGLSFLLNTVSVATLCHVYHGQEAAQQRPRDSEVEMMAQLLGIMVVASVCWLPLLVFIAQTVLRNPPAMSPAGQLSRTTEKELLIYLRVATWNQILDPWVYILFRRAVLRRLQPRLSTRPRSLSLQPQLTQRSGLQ
Summary of the method: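 HEK-293(EBNA) cells stably expressing the recombinant human receptor were loaded with 2 μM Fluo-4 AM for 45 min and read on FLIPR at 37° C in HBSS-HEPES pH 7.4. Peak fluorescence rise was expressed relative to buffer and standard agonist controls (BW245C, PGE2 or U-46619 by receptor); compounds were run 10^−5 to 10^−11 M in duplicate, n≧3.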

hEP1 = target: T2, hEP1 (Homo sapiens, UniProt P34995); assay: FLIPR calcium signal, hEP1; details: for EC50: read-out: Other Receptors EC50 hEP1
T2 construct: expressed in transfected cells; host or cells: HEK-293(EBNA)
T2 sequence (P34995 1-402): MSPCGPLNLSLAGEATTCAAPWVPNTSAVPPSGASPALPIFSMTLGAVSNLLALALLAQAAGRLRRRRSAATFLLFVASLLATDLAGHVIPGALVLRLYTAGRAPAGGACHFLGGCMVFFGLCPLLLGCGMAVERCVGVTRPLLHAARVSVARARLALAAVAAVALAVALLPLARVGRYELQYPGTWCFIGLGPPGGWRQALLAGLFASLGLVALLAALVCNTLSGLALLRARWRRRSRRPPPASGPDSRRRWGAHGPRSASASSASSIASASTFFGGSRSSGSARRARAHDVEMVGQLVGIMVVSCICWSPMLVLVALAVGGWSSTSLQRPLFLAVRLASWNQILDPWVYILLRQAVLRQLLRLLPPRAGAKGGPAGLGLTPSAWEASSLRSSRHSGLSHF
Experimental: (§1) HEK-293(EBNA) cells, stably expressing one type or subtype of recombinant human prostaglandin receptors (prostaglandin receptors expressed: hDP/Gqs5; hEP1; hEP2/Gqs5; hEP3A/Gqi5; hEP4/Gqs5; hFP; hIP; hTP), were cultured in 100 mm culture dishes in high-glucose DMEM medium containing 10% fetal bovine serum, 2 mM 1-glutamine, 250 μg/ml geneticin (G418) and 200 μg/ml hygromycin B as selection markers, and 100 units/ml penicillin G, 100 μg/ml streptomycin and 0.25 μg/ml amphotericin B. • (b) Calcium Signal Studies on the FLIPR™
(§2) Cells were seeded at a density of 5×10^4 cells per well in Biocoat® Poly-D-lysine-coated black-wall, clear-bottom 96-well plates (Becton-Dickinson) and allowed to attach overnight in an incubator at 37° C. Cells were then washed two times with HBSS-HEPES buffer (Hanks Balanced Salt Solution without bicarbonate and phenol red, 20 mM HEPES, pH 7.4) using a Denley Cellwash plate washer (Labsystems). After 45 minutes of dye-loading in the dark, using the calcium-sensitive dye Fluo-4 AM at a final concentration of 2 μM, plates were washed four times with HBSS-HEPES buffer to remove excess dye leaving 100 μl in each well. Plates were re-equilibrated to 37° C. for a few minutes.
(§3) Cells were excited with an Argon laser at 488 nm, and emission was measured through a 510-570 nm bandwidth emission filter (FLIPR™, Molecular Devices, Sunnyvale, Calif.). Drug solution was added in a 50 μl volume to each well to give the desired final concentration. The peak increase in fluorescence intensity was recorded for each well. On each plate, four wells each served as negative (HBSS-HEPES buffer) and positive controls (standard agonists: BW245C (hDP); PGE2 (hEP1; hEP2/Gqs5; hEP3A/Gqi5; hEP4/Gqs5); PGF2α (hFP); carbacyclin (hIP); U-46619 (hTP), depending on receptor). The peak fluorescence change in each drug-containing well was then expressed relative to the controls.
(§4) Compounds were tested in a high-throughput (HTS) or concentration-response (CoRe) format. In the HTS format, forty-four compounds per plate were examined in duplicates at a concentration of 10^−5 M. To generate concentration-response curves, four compounds per plate were tested in duplicates in a concentration range between 10^−5 and 10^−11 M. The duplicate values were averaged. In either, HTS or CoRe format each compound was tested on at least 3 separate plates using cells from different passages to give an n≧3.

hIP = target: T3, hIP (Homo sapiens, UniProt P43119); assay: FLIPR calcium signal, hIP; details: for EC50: read-out: Other Receptors EC50 hIP
T3 construct: expressed in transfected cells; host or cells: HEK-293(EBNA)
Experimental: as §1, §2, §3, §4

hFP = target: T4, hFP (Homo sapiens, UniProt P43088); assay: FLIPR calcium signal, hFP; details: Table 3, third part
T4 construct: expressed in transfected cells; host or cells: HEK-293(EBNA)
Experimental: as §1, §2, §3
Compounds were tested in a high-throughput (HTS) or concentration-response (CoRe) format. […]

T3 sequence (P43119 whole entry): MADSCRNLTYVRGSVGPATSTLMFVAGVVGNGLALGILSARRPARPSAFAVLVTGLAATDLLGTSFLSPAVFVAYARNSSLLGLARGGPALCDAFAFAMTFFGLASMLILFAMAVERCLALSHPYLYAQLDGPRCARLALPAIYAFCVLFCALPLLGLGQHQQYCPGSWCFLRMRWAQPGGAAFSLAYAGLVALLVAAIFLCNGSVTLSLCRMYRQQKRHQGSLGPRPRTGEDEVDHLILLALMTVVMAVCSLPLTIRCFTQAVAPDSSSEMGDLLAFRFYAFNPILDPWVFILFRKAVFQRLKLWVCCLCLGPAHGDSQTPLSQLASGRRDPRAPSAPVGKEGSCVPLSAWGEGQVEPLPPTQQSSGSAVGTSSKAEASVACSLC
T4 sequence (P43088 whole entry): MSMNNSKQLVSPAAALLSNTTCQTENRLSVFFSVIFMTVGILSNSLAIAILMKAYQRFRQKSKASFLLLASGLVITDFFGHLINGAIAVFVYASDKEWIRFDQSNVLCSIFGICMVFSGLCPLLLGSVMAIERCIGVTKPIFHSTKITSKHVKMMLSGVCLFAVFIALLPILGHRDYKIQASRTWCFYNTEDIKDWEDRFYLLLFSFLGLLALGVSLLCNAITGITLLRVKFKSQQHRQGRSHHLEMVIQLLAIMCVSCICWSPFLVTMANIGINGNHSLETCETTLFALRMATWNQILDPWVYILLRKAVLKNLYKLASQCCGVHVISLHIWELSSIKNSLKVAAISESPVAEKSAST

## CCCCCC(C)c1ccc([C@@H]2[C@@H](C/C=C\CCCC(=O)O)[C@H](C#N)C[C@H]2C)cc1 (some centres unmarked)
hTP; Table 3, third part
  Ca2+ Signal-EC50 (nM) TP: not active
hEP1; Table 3, third part
  Ca2+ Signal-EC50 (nM) EP1: not active
hIP; Table 3, third part
  Ca2+ Signal-EC50 (nM) IP: not active
hFP
  Ca2+ Signal-EC50 (nM) FP: not active

## CC(C)(C)c1ccc(N2C(=O)CC[C@@H]2COCc2ccc(C(=O)O)s2)cc1
hTP; read-out: Other Receptors EC50 hTP
  EC50: > 10 µM
hEP1
  EC50: > 10 µM

## CC(C)(C)c1ccc(N2C(=O)CC[C@@H]2CCCCCCC(=O)O)cc1
hEP1
  EC50: > 10 µM

## CCCCCCC(O)c1ccc(N2C(=O)CC[C@@H]2CCCc2ccc(C(=O)O)s2)cc1 (single isomer, unassigned) [drawing 155]
hEP1
  EC50: 6.95 µM

## CCCCCCC(O)c1ccc(N2C(=O)CC[C@@H]2CCCc2ccc(C(=O)O)s2)cc1 (single isomer, unassigned) [drawing 156]
hIP
  EC50: > 10 µM

## CCCCCCC(O)c1ccc(N2C(=O)CC[C@@H]2CCCc2ccc(C(=O)O)s2)cc1 (single isomer, unassigned) [drawing 183]
hEP1
  EC50: 6.95 µM

## CCCCCCC(O)c1ccc(N2C(=O)CC[C@@H]2CCCc2ccc(C(=O)O)s2)cc1 (single isomer, unassigned) [drawing 184]
hIP
  EC50: > 10 µM
